Measured values taken from paper PMC11859184, “Synthesis and Evaluation of ^68Ga- and ^177Lu-Labeled [diF-Pro^14]Bombesin(6−14) Analogs for Detection and Radioligand Therapy of Gastrin-Releasing Peptide Receptor-Expressing Cancer” (Pharmaceuticals, 2025).
Where two headings read alike, the source gives them in different places.

Test: Ex vivo biodistribution of 177Lu-labeled ligands in PC-3 tumor-bearing mice
Settings: mouse, intravenous; for tissue uptake at 72 h: 72 h pi; for tissue uptake at 120 h: 120 h pi; for tissue uptake at 1 h: 1 h pi; for tissue uptake at 4 h: 4 h pi; for tissue uptake at 24 h: 24 h pi
Method: SPECT/CT imaging was conducted using an MI Labs (Houten, The Netherlands) U-SPECT-II/CT scanner with a custom-made ultra-high sensitivity big mouse collimator (2 mm pinhole size) following published procedure. The experiments were obtained in accordance with the same protocol established in the PET/CT imaging and ex vivo biodistributions section. The mice were used for SPECT/CT imaging and ex vivo biodistributions studies once the tumors reached a diameter of 5–8 mm. PC-3 tumor-bearing mice were sedated (2.5% isoflurane in O2) and injected with 31.4–36.9 MBq of the ^177Lu-labeled ligand through a lateral caudal tail vein. The mouse was imaged at 1, 4, 24, 72, and 120 h pi. At each time point, a 5 min CT scan was performed with 615 μA and 60 kV parameters for localization and attenuation, followed by two 30 min static SPECT scans in list mode with an energy window centered around 208 keV. The U-SPECT II software was used to reconstruct data, and the images were decay corrected to the time of injection with PMOD v 3.402 (PMOD Technologies GmbH, Fallanden, Switzerland).
For ex vivo biodistribution studies, the mice were injected with ~3–5 MBq of the ^177Lu-labeled ligand (n = 5). At 1, 4, 24, 72, and 120 h post-injection, the mice were anesthetized with 2% isoflurane, euthanized by CO2 inhalation, and the tissues/organs of interest were […] for radioactivity counting. The blocking study was performed at 1 h pi via co-injection of the ^177Lu-labeled ligand with 100 μg of [D-Phe^6,Leu-NHEt^13,des-Met^14]Bombesin(6–14).

[1] = heart, n = 5, read-out: Heart uptake
[2] = kidneys, n = 5, read-out: Kidneys uptake
[3] = large intestine, n = 5, read-out: Large intestine uptake
[4] = liver, n = 5, read-out: Liver uptake
[5] = lungs, n = 5, read-out: Lungs uptake
[6] = muscle, n = 5, read-out: Muscle uptake
[7] = pancreas, n = 5, read-out: Pancreas uptake
[8] = small intestine, n = 5, read-out: Small intestine uptake
[9] = spleen, n = 5, read-out: Spleen uptake
[10] = stomach, n = 5, read-out: Stomach uptake
[11] = testes, n = 5, read-out: Testes uptake

CC(C)C[C@H](NC(=O)[C@H](Cc1cnc[nH]1)N(C)C(=O)CNC(=O)[C@@H](NC(=O)[C@H](C)NC(=O)[C@H](Cc1c[nH]c2ccccc12)NC(=O)[C@H](CCC(N)=O)NC(=O)[C@@H](Cc1ccccc1)NC(=O)CN1CCC(NC(=O)CN2CCN(CC(=O)O)CCN(CC(=O)O)CCN(CC(=O)O)CC2)CC1)C(C)(C)C)C(=O)N1CC(F)(F)C[C@H]1C(N)=O [[^177Lu]Lu-LW02060, metal not drawn] gave a tissue uptake at 72 h [1] of 0.01 %ID/g, a tissue uptake at 120 h [1] of 0.01 %ID/g and a tissue uptake at 1 h (kidneys, 100 ug, blocked (100 µg GRPR antagonist co-injected), read-out: Kidneys uptake) of 3.8 ± 0.85 %ID/g. The tissue uptake at 1 h [2] was 3.62 ± 0.86 %ID/g, the tissue uptake at 4 h [2] was 2.85 ± 0.29 %ID/g and the tissue uptake at 24 h [2] was 1.06 ± 0.22 %ID/g. The tissue uptake at 72 h [2] was 0.33 ± 0.03 %ID/g, the tissue uptake at 120 h [2] was 0.15 ± 0.04 %ID/g and the tissue uptake at 1 h (large intestine, 100 ug, blocked (100 µg GRPR antagonist co-injected), read-out: Large intestine uptake) was 0.22 ± 0.04 %ID/g. The tissue uptake at 1 h [3] was 0.49 ± 0.31 %ID/g, the tissue uptake at 4 h [3] was 0.68 ± 0.12 %ID/g and the tissue uptake at 24 h [3] was 0.43 ± 0.13 %ID/g. The tissue uptake at 72 h [3] was 0.32 ± 0.14 %ID/g, the tissue uptake at 120 h [3] was 0.05 ± 0.02 %ID/g and the tissue uptake at 1 h (liver, 100 ug, blocked (100 µg GRPR antagonist co-injected), read-out: Liver uptake) was 0.27 ± 0.03 %ID/g. For the same compound, the tissue uptake at 1 h [4] was 0.47 ± 0.19 %ID/g, the tissue uptake at 4 h [4] was 0.27 ± 0.06 %ID/g and the tissue uptake at 24 h [4] was 0.14 ± 0.07 %ID/g. The tissue uptake at 72 h [4] was 0.06 ± 0.01 %ID/g, the tissue uptake at 120 h [4] was 0.07 ± 0.02 %ID/g and the tissue uptake at 1 h (lungs, 100 ug, blocked (100 µg GRPR antagonist co-injected), read-out: Lungs uptake) was 0.54 ± 0.17 %ID/g. For the same compound, the tissue uptake at 1 h [5] was 0.57 ± 0.18 %ID/g, the tissue uptake at 4 h [5] was 0.15 ± 0.04 %ID/g and the tissue uptake at 24 h [5] was 0.06 ± 0.02 %ID/g. The tissue uptake at 72 h [5] was 0.03 ± 0.01 %ID/g, the tissue uptake at 120 h [5] was 0.02 %ID/g and the tissue uptake at 1 h (muscle, 100 ug, blocked (100 µg GRPR antagonist co-injected), read-out: Muscle uptake) was 0.15 ± 0.05 %ID/g. It also gave a tissue uptake at 1 h [6] of 0.13 ± 0.05 %ID/g, a tissue uptake at 4 h [6] of 0.05 ± 0.01 %ID/g and a tissue uptake at 24 h [6] of 0.01 %ID/g. For the same compound, the tissue uptake at 72 h [6] was 0.01 %ID/g, the tissue uptake at 1 h (pancreas, 100 ug, blocked (100 µg GRPR antagonist co-injected), read-out: Pancreas uptake) was 0.51 ± 0.12 %ID/g and the tissue uptake at 1 h [7] was 2.64 ± 0.63 %ID/g. For the same compound, the tissue uptake at 4 h [7] was 1.71 ± 0.08 %ID/g, the tissue uptake at 24 h [7] was 1.04 ± 0.19 %ID/g and the tissue uptake at 72 h [7] was 0.35 ± 0.08 %ID/g. The tissue uptake at 120 h [7] was 0.11 ± 0.01 %ID/g, the tissue uptake at 1 h (small intestine, 100 ug, blocked (100 µg GRPR antagonist co-injected), read-out: Small intestine uptake) was 0.23 ± 0.06 %ID/g and the tissue uptake at 1 h [8] was 0.67 ± 0.16 %ID/g. For the same compound, the tissue uptake at 4 h [8] was 0.26 ± 0.04 %ID/g, the tissue uptake at 24 h [8] was 0.13 ± 0.01 %ID/g and the tissue uptake at 72 h [8] was 0.04 ± 0.01 %ID/g. For the same compound, the tissue uptake at 120 h [8] was 0.02 ± 0.01 %ID/g, the tissue uptake at 1 h (spleen, 100 ug, blocked (100 µg GRPR antagonist co-injected), read-out: Spleen uptake) was 0.2 ± 0.06 %ID/g and the tissue uptake at 1 h [9] was 0.46 ± 0.2 %ID/g. For the same compound, the tissue uptake at 4 h [9] was 0.13 ± 0.03 %ID/g, the tissue uptake at 24 h [9] was 0.09 ± 0.02 %ID/g and the tissue uptake at 72 h [9] was 0.07 ± 0.02 %ID/g. For the same compound, the tissue uptake at 120 h [9] was 0.05 ± 0.01 %ID/g, the tissue uptake at 1 h (stomach, 100 ug, blocked (100 µg GRPR antagonist co-injected), read-out: Stomach uptake) was 0.08 ± 0.03 %ID/g and the tissue uptake at 1 h [10] was 0.29 ± 0.06 %ID/g. It also gave a tissue uptake at 4 h [10] of 1.2 ± 1.55 %ID/g, a tissue uptake at 24 h [10] of 0.12 ± 0.05 %ID/g and a tissue uptake at 72 h [10] of 0.07 ± 0.02 %ID/g. The tissue uptake at 120 h [10] was 0.03 ± 0.01 %ID/g, the tissue uptake at 1 h (testes, 100 ug, blocked (100 µg GRPR antagonist co-injected), read-out: Testes uptake) was 0.14 ± 0.05 %ID/g and the tissue uptake at 1 h [11] was 0.18 ± 0.03 %ID/g. It also gave a tissue uptake at 4 h [11] of 0.04 ± 0.01 %ID/g, a tissue uptake at 24 h [11] of 0.02 %ID/g and a tissue uptake at 72 h [11] of 0.02 ± 0.01 %ID/g. The tissue uptake at 120 h [11] was 0.01 ± 0.01 %ID/g.
